Reference: patent publication US20250051375A1, “ANTI-HIV COMPOUNDS” (Gilead Sciences, Inc., priority 2023, published 2025)
≈ marks a conversion by molar mass, not a printed value.

What was measured:
[1] = Intestinal S9 Assay (human GI S9); assay type: in vitro ADME; conditions: 1.0 mg/mL S9 protein; for half-life at 2 μM: human, TRIS pH 7.4, read-out: Human GI S9 T½
How it was run: (§1)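 Pooled dog or human intestinal S9 at 1.0 mg/mL protein in TRIS buffer pH 7.4 with ZnCl2 and MgCl2; compound at 2 μM, sampled 0–120 min and quenched. Remaining parent by LC-MS peak area ratio; half-life from first-order exponential decline fit.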

Solubility in FaSSIF = conditions: 23 °C, pH 6.5, fassif, thermodynamic from solid
How it was run: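 Concentration measured by HPLC-UV after solid compound was dosed at 5 mg/mL into pH 6.5 fasted-state simulated intestinal fluid containing taurocholate and lecithin (4:1 molar) and vortexed.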

PBS Stability Assay = assay type: physicochemical; conditions: phosphate buffered saline pH 7.4; for half-life at 2 μM: buffer, pH 7.4, 2 μM, read-out: PBS T½; for PBS T½: 2 μM
How it was run: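 Test compound at 2 μM final was incubated in PBS, pH 7.4, and sampled at 0, 10, 20, 30, 60 and 120 min into acetonitrile/1% formic acid quench with labetalol internal standard. Remaining compound was quantified by LC-MS peak-area ratio, and half-life came from a first-order exponential fit.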

[2] = Intestinal S9 Assay (dog GI S9); assay type: in vitro ADME; conditions: 1.0 mg/mL S9 protein; for half-life at 2 μM: dog, TRIS pH 7.4, read-out: Dog GI S9 T½
How it was run: as §1

HIV-1 IIIB strain = test: MT-4 HIV Wild Type Virus Infection Assay (IIIB Virus); assay type: cell-based; conditions: Human immunodeficiency virus 1, IIIB, MT4, 120 h, MT-4 cells acutely infected with HIV-1 IIIB, 5 day incubation, Cell-titer glo
How it was run: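 MT-4 cells at 2×10^6 cells/ml in RPMI/10% FBS were acutely infected with HIV-1 IIIB for 1 h at 37° C, diluted 25× and added to serially diluted compounds. After 5 days at 37° C, viability read by CellTiter-Glo luminescence; EC50 from dose-response curves.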

[3] = biological target: bovine intestinal alkaline phosphatase (Bos taurus (Bovine), UniProt P19111); test: BiALP: conversion by bovine intestinal alkaline phosphatase; assay type: in vitro ADME; conditions: 2 μM substrate, 100 ng/mL iALP, Tris pH 7.8, 37° C., 60 minutes
Sequence of bovine intestinal alkaline phosphatase (P19111 20-506): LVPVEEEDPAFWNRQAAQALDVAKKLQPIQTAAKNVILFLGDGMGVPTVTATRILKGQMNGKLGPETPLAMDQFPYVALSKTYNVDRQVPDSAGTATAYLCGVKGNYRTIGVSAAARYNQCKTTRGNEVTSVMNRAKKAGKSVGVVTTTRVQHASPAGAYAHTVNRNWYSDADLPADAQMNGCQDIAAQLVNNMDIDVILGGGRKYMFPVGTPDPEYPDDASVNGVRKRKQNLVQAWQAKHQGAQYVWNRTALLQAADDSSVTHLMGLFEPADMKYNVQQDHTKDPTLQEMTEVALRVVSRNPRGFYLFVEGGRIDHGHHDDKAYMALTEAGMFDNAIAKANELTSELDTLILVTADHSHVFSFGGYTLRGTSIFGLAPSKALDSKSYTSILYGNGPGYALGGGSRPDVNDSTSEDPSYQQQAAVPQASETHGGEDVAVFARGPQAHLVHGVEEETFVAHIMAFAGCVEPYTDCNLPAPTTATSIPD
How it was run: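 Compounds at 2 μM final were incubated 60 min at 37° C in 0.1 M Tris-HCl pH 7.8 with 1 mM MgCl2 and 1 mM ZnCl2, with or without 100 ng/mL iALP (0.01 units/mL). Samples were quenched with acetonitrile/formic acid containing labetalol. Conversion was quantified by LC-MS peak area ratios against a 2 μM product standard.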

Row | Structure (SMILES) | half-life at 2 μM [1] | solubility at 2 h (Solubility in FaSSIF) | half-life at 2 μM (PBS Stability Assay) | half-life at 2 μM [2] | EC50 (HIV-1 IIIB strain) | [Compound] [3] | Human GI S9 T½ ([1]; 2 μM, TRIS pH 7.4) | PBS T½ (PBS Stability Assay) | Human GI S9 [Intermediate A] ([1]; 2 μM, TRIS pH 7.4) | Human GI S9 [Intermediate A] % ([1]; 2 μM, TRIS pH 7.4) | Dog GI S9 [Intermediate A] ([2]; 2 μM, TRIS pH 7.4) | Dog GI S9 [Intermediate A] % ([2]; 2 μM, TRIS pH 7.4) | biALP Intermediate A or [Amprenavir] (% of total) [3] | [Intermediate A] or [Amprenavir] ([3]; parent formed)
1 | COC(=O)N[C@H](C(=O)N[C@@H](Cc1ccc(C#Cc2cnc(N3CC4CCC(C3)N4C3COC3)nc2)cc1)[C@H](CN(Cc1c(F)cc(-c2ccn(C(F)F)n2)cc1F)NC(=O)[C@@H](NC(=O)OC)C(C)(C)C(F)(F)F)OC(=O)CC(C)(C)c1c(CC(=O)N[C@]2(C(=O)O)CCOC2)cc(C)cc1OP(=O)(O)O)C(C)(C)C(F)(F)F [Example 30] | 4.11 h | 5370 µg/mL (≈ 3360 µM) | 8.56 h | 1.17 h | 197 nM | 1521.8 nM |  |  |  |  |  |  |  | 
2 | COC(=O)N[C@H](C(=O)N[C@@H](Cc1ccc(C#Cc2cnc(N3CC4CCC(C3)N4C3COC3)nc2)cc1)[C@H](CN(Cc1c(F)cc(-c2ccn(C(F)F)n2)cc1F)NC(=O)[C@@H](NC(=O)OC)C(C)(C)C(F)(F)F)OC(=O)CC(C)(C)c1c(CC(=O)NC/C(N)=N/O)cc(C)cc1OP(=O)(O)O)C(C)(C)C(F)(F)F [Example 28, (5S,10S,11S,14S)-8-(4-(1-(difluoromethyl)-1H-pyrazol-3-yl)-2,6-difluorobenzyl)-11-(4-((2-(8-(oxetan-3-yl)-3,8-diazabicyclo[3.2.1]octan-3-yl)pyrimidin-5-yl)ethynyl)benzyl)-3,6,13,16-tetraoxo-5,14-bis(1,1,1-trifluoro-2-methylpropan-2-yl)-2,17-dioxa-4,7,8,12,15-pentaazaoctadecan-10-yl 3-(2-(2-(((Z)-2-amino-2-(hydroxyimino)ethyl)amino)-2-oxoethyl)-4-methyl-6-(phosphonooxy)phenyl)-3-methylbutanoate] |  | 15 µg/mL (≈ 9.64 µM) |  | 11.4 h | 307 nM | 2478.7 nM | 13.2 h | 13.2 h |  |  |  |  |  | 
3 | COC(=O)N[C@H](C(=O)N[C@@H](Cc1ccc(C#Cc2cnc(N3CC4CCC(C3)N4C3COC3)nc2)cc1)[C@H](CN(Cc1c(F)cc(-c2ccn(C(F)F)n2)cc1F)NC(=O)[C@@H](NC(=O)OC)C(C)(C)C(F)(F)F)OC(=O)CC(C)(C)c1c(CC(=O)NCC(=O)O)cccc1OP(=O)(O)O)C(C)(C)C(F)(F)F [Example 7] | 2.27 h | 5490 µg/mL (≈ 3590 µM) | 8.72 h | 0.457 h | 23.2 nM | 1590.8 nM |  |  | 404.7 nM | 31.3% | 1224.2 nM | 91% | 9.4 % of total | 164.7 nM
4 | COC(=O)N[C@H](C(=O)N[C@@H](Cc1ccc(C#Cc2cnc(N3CC4CCC(C3)N4C3COC3)nc2)cc1)[C@H](CN(Cc1c(F)cc(-c2ccn(C(F)F)n2)cc1F)NC(=O)[C@@H](NC(=O)OC)C(C)(C)C(F)(F)F)OC(=O)CC(C)(C)c1c(CC(=O)NCc2ccc(C(=O)O)cc2)cc(C)cc1OP(=O)(O)O)C(C)(C)C(F)(F)F [Example 49] | 5.5 h | 1220 µg/mL (≈ 754 µM) | 5.66 h | 2.59 h | 224 nM | 2175 nM |  |  |  |  |  |  |  | 
5 | COC(=O)N[C@H](C(=O)N[C@@H](Cc1ccc(C#Cc2cnc(N3CC4CCC(C3)N4C3COC3)nc2)cc1)[C@H](CN(Cc1c(F)cc(-c2ccn(C(F)F)n2)cc1F)NC(=O)[C@@H](NC(=O)OC)C(C)(C)C(F)(F)F)OC(=O)CC(C)(C)c1c(CC(=O)N[C@@]2(C(=O)O)CCOC2)cc(C)cc1OP(=O)(O)O)C(C)(C)C(F)(F)F [Example 29] | 3.31 h | 4970 µg/mL (≈ 3110 µM) | 8.62 h | 0.822 h | 213 nM | 1878.7 nM |  |  |  |  |  |  |  | 
6 | COC(=O)N[C@H](C(=O)N[C@@H](Cc1ccc(C#Cc2cnc(N3CC4CCC(C3)N4C3COC3)nc2)cc1)[C@H](CN(Cc1c(F)cc(-c2ccn(C(F)F)n2)cc1F)NC(=O)[C@@H](NC(=O)OC)C(C)(C)C(F)(F)F)OC(=O)CC(C)(C)c1c(CC(=O)N2CC[C@H](C(=O)O)C2)cc(C)cc1OP(=O)(O)O)C(C)(C)C(F)(F)F [Example 76] | 6.16 h | 2230 µg/mL (≈ 1410 µM) | 4.89 h | 4.41 h | 333 nM | 1777 nM |  |  |  |  |  |  |  | 
7 | COC(=O)N[C@H](C(=O)N[C@@H](Cc1ccc(C#Cc2cnc(N3CC4CCC(C3)N4C3COC3)nc2)cc1)[C@H](CN(Cc1c(F)cc(-c2ccn(C(F)F)n2)cc1F)NC(=O)[C@@H](NC(=O)OC)C(C)(C)C(F)(F)F)OC(=O)CC(C)(C)c1c(CC(=O)NCCS(=O)(=O)O)cc(C)cc1OP(=O)(O)O)C(C)(C)C(F)(F)F [Example 24] | 3.78 h | 4660 µg/mL (≈ 2920 µM) |  | 2.24 h | 130 nM | 1717.9 nM |  | 13.2 h |  |  |  |  |  | 
